Experiments:
Rat [1] = assay: concentration in plasma after dosing; settings: dosed: Bis 2-Chloroethoxy Methane, 40 mg/kg, iv, Male, Harlan Sprague Dawley
Rat [2] = assay: concentration in thymus after dosing; settings: 6 h; dosed: Bis 2-Chloroethoxy Methane; 20 mg/kg; iv; Male; F344
Rat [3] = assay: concentration in thymus after dosing; settings: 4 h; dosed: Bis 2-Chloroethoxy Methane; 20 mg/kg; iv; Male; F344
Rat [4] = assay: concentration in thymus after dosing; settings: 4 h; dosed: Bis 2-Chloroethoxy Methane; 20 mg/kg; iv; Male; F344; remark: listed apart in the source
Rat [5] = assay: concentration in plasma after dosing; settings: dosed: Bis 2-Chloroethoxy Methane, 40 mg/kg, iv, Male, Harlan Sprague Dawley; remark: listed apart in the source
Rat [6] = assay: concentration in plasma after dosing; settings: 2 h; dosed: Bis 2-Chloroethoxy Methane; 20 mg/kg; iv; Male; F344
Rat [7] = assay: concentration in liver after dosing; settings: 1 h; dosed: Fluorotelomer alcohol 8+2; 80 mg/kg; oral; Female; Harlan Sprague Dawley
Rat [8] = assay: concentration in plasma after dosing; settings: dosed: Fluorotelomer alcohol 8+2, 12 mg/kg, oral, Male, Harlan Sprague Dawley
Rat [9] = assay: concentration in plasma after dosing; settings: 6 h; dosed: Di-n-butyl phthalate; 50 mg/kg; oral; Male; Sprague-Dawley
Rat [10] = assay: concentration in plasma after dosing; settings: 0.25 h; dosed: Di-n-butyl phthalate; 100 mg/kg; oral; Male; Sprague-Dawley
Rat [11] = assay: concentration in plasma after dosing; settings: dosed: Perfluorodecanoic acid, 2 mg/kg, oral, Male, Harlan Sprague Dawley
Rat [12] = assay: concentration in plasma after dosing; settings: 12 h; dosed: Primidone; 130 mg/kg; oral; Male; Harlan Sprague Dawley
Rat [13] = assay: concentration in heart after dosing; settings: 20 min; dosed: Thiodiglycolic Acid; 20 mg/kg; iv; Female; F344
Rat [14] = assay: concentration in heart after dosing; settings: 40 min; dosed: Thiodiglycolic Acid; 20 mg/kg; iv; Male; Harlan Sprague Dawley
Rat [15] = assay: concentration in plasma after dosing; settings: 20 min; dosed: Thiodiglycolic Acid; 20 mg/kg; iv; Female; Harlan Sprague Dawley
Rat [16] = assay: concentration in plasma after dosing; settings: dosed: dichloroacetic acid, 100 mg/kg, oral, Male, F344
rat [17] = assay: concentration in blood after dosing; settings: dosed: p-tert-octylphenol, Sprague-Dawley

ClCCOCOCCCl [Bis 2-Chloroethoxy Methane]
concentration in plasma [ng/mL]
Settings | 6.667 h | 8 h | 20 min | 40 min
Rat [1] | – | 15.5 | – | 6610
Rat [5] | 40.1 | – | 9720 | –

Settings | concentration in plasma [ng/mL] | concentration in thymus [ng/g]
Rat [2] | – | 19.5
Rat [3] | – | 149
Rat [4] | – | 72.9
Rat [6] | 99.4 | –

OCCC(F)(F)C(F)(F)C(F)(F)C(F)(F)C(F)(F)C(F)(F)C(F)(F)C(F)(F)F [Fluorotelomer alcohol 8+2]
Settings | concentration in liver [ng/g]
Rat [7] | 7790

Rat [8]
Settings | concentration in plasma [ng/mL]
0.5 h | 374
9 h | 12.8

CCCCOC(=O)c1ccccc1C(=O)O [Mono-n-butyl phthalate]
Settings | concentration in plasma [ng/mL]
Rat [9] | 2060
Rat [10] | 13200

O=C(O)C(F)(F)C(F)(F)C(F)(F)C(F)(F)C(F)(F)C(F)(F)C(F)(F)C(F)(F)C(F)(F)F [Perfluorodecanoic acid]
Rat [11]
Settings | concentration in plasma [ng/mL]
0.5 h | 2500
24 h | 7510
1848 h | 1090

CCC1(c2ccccc2)C(=O)NC(=O)NC1=O [Phenobarbital]
Settings | concentration in plasma [ng/mL]
Rat [12] | 2490

O=C(O)CSCC(=O)O [Thiodiglycolic Acid]
Settings | concentration in heart [ng/g] | concentration in plasma [ng/mL]
Rat [13] | 3600 | –
Rat [14] | 2020 | –
Rat [15] | – | 11700

O=C(O)C(Cl)Cl [dichloroacetic acid]
Rat [16]
Settings | concentration in plasma [ng/mL]
1.25 h | 54200
2 min | 2970

CC(C)(C)CC(C)(C)c1ccc(O)cc1 [octylphenol]
concentration in blood [ng/mL], rat [17]
Settings | female | male
0.1573 h, 2 mg/kg, iv | – | 159
0.1576 h, 4 mg/kg, iv | – | 317
0.1581 h, 8 mg/kg, iv | – | 942
0.1679 h, 2 mg/kg, iv | 116 | –
0.1763 h, 4 mg/kg, iv | 283 | –
0.1763 h, 8 mg/kg, iv | 852 | –
0.4805 h, 8 mg/kg, iv | – | 376
0.4823 h, 125 mg/kg, oral | – | 157
0.4883 h, 2 mg/kg, iv | – | 63.6
0.4888 h, 4 mg/kg, iv | – | 169
0.499 h, 250 mg/kg, oral | – | 244
0.5015 h, 50 mg/kg, oral | – | 63.7
0.5164 h, 2 mg/kg, iv | 67.8 | –
0.5164 h, 4 mg/kg, iv | 141 | –
0.5164 h, 8 mg/kg, iv | 430 | –
0.519 h, 125 mg/kg, oral | 159 | –
0.5202 h, 250 mg/kg, oral | 222 | –
0.5529 h, 50 mg/kg, oral | 136 | –
0.8196 h, 2 mg/kg, iv | – | 46.6
0.8247 h, 8 mg/kg, iv | – | 258
0.8286 h, 4 mg/kg, iv | – | 107
0.8355 h, 2 mg/kg, iv | 43.6 | –
0.8355 h, 4 mg/kg, iv | 89.6 | –
0.8397 h, 8 mg/kg, iv | 303 | –
0.9901 h, 250 mg/kg, oral | – | 379
0.9911 h, 125 mg/kg, oral | – | 219
0.9923 h, 50 mg/kg, oral | – | 116
1.038 h, 125 mg/kg, oral | 271 | –
1.051 h, 50 mg/kg, oral | 87.5 | –
1.147 h, 8 mg/kg, iv | – | 210
1.155 h, 2 mg/kg, iv | – | 28.8
1.16 h, 4 mg/kg, iv | – | 69.7
1.167 h, 2 mg/kg, iv | 23.8 | –
1.167 h, 4 mg/kg, iv | 71 | –
1.167 h, 8 mg/kg, iv | 229 | –
1.486 h, 2 mg/kg, iv | – | 24.8
1.487 h, 8 mg/kg, iv | – | 169
1.499 h, 8 mg/kg, iv | 170 | –
1.5 h, 4 mg/kg, iv | – | 59.3
1.503 h, 2 mg/kg, iv | 25.3 | –
1.503 h, 4 mg/kg, iv | 59 | –
1.994 h, 2 mg/kg, iv | 16.1 | –
1.994 h, 4 mg/kg, iv | 46.2 | –
1.994 h, 8 mg/kg, iv | 128 | –
2.003 h, 2 mg/kg, iv | – | 22.4
2.003 h, 4 mg/kg, iv | – | 39.3
2.004 h, 8 mg/kg, iv | – | 122
2.038 h, 125 mg/kg, oral | 235 | –
2.052 h, 50 mg/kg, oral | 109 | –
2.08 h, 250 mg/kg, oral | – | 305
2.081 h, 50 mg/kg, oral | – | 128
2.081 h, 125 mg/kg, oral | – | 171
2.989 h, 4 mg/kg, iv | – | 23.4
2.993 h, 8 mg/kg, iv | – | 72.1
2.998 h, 2 mg/kg, iv | 15.9 | –
2.998 h, 4 mg/kg, iv | 33.8 | –
3.015 h, 8 mg/kg, iv | 101 | –
3.991 h, 4 mg/kg, iv | – | 12.2
3.996 h, 8 mg/kg, iv | – | 40.2
3.997 h, 8 mg/kg, iv | 57.6 | –
4.014 h, 4 mg/kg, iv | 21.7 | –
4.016 h, 50 mg/kg, oral | 70 | –
4.022 h, 250 mg/kg, oral | 320 | –
4.03 h, 250 mg/kg, oral | – | 260
4.031 h, 125 mg/kg, oral | – | 160
4.032 h, 50 mg/kg, oral | – | 85.1
4.038 h, 125 mg/kg, oral | 268 | –
6.016 h, 50 mg/kg, oral | 69.2 | –
6.02 h, 125 mg/kg, oral | 210 | –
6.021 h, 250 mg/kg, oral | 268 | –
6.034 h, 250 mg/kg, oral | – | 192
6.07 h, 50 mg/kg, oral | – | 87
6.07 h, 125 mg/kg, oral | – | 123
7.933 h, 50 mg/kg, oral | – | 77.3
8 h, 50 mg/kg, oral | 93.2 | –
8.003 h, 125 mg/kg, oral | 205 | 95.8
8.005 h, 250 mg/kg, oral | 357 | –
8.019 h, 250 mg/kg, oral | – | 210
11.97 h, 250 mg/kg, oral | 373 | –
11.98 h, 50 mg/kg, oral | 69.7 | –
11.99 h, 50 mg/kg, oral | – | 37.2
11.99 h, 125 mg/kg, oral | – | 84.2
11.99 h, 250 mg/kg, oral | – | 157
12.02 h, 125 mg/kg, oral | 209 | –
24.01 h, 50 mg/kg, oral | 24.7 | –
24.02 h, 250 mg/kg, oral | – | 107
24.03 h, 50 mg/kg, oral | – | 7.77
24.03 h, 125 mg/kg, oral | 63.5 | –
24.04 h, 125 mg/kg, oral | – | 28.8
24.04 h, 250 mg/kg, oral | 307 | –

concentration in blood [ng/mL], rat [17], 125 mg/kg
Settings | 0.5035 h | 0.5155 h | 1.054 h | 2.015 h | 4.058 h | 5.98 h | 8.091 h | 12.04 h | 24.03 h
female | – | 19 | – | – | – | – | – | – | –
male | 23.9 | – | 39.1 | 61.8 | 90.3 | 102 | 180 | 122 | 54.7

— EPA's CvTdb concentration-time database
